Patent publication US20120010242A1 (ALKERSTRAAT 30 A, priority 2009, published 2012)

How the values were obtained:
5-HT2C receptor = target: T1, 5-HT2C receptor (Homo sapiens, UniProt P28335); test: pKi for 5HT2C receptor (Table 1); format: binding
T1 sequence (P28335 33-458): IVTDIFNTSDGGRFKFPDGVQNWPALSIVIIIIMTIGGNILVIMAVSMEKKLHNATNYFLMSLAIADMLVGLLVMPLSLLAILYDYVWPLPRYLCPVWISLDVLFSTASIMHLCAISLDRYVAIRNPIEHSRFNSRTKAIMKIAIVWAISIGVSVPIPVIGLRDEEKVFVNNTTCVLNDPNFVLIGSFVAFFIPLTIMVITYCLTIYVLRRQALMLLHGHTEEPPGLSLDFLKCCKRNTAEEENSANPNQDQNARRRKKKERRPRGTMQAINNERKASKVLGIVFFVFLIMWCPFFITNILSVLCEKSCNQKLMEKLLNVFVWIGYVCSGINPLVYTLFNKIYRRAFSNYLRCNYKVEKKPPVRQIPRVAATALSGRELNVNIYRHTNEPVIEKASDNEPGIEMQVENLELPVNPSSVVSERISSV
Description: (§1) The term “other 5HT receptors” as used herein relate to, for instance, 5-HT1 receptors (e.g. 5-HT1A, 5-HT1 B, 5-HT1D, 5-HT1 E, 5-HT1F), 5-HT2B, 5-HT2C, 5-HT6 (rat) and 5-HT7 (rat). The expression “selective affinity for the 5-HT2A receptor” relates to a receptor having a higher affinity for the 5-HT2A receptor than for other 5-HT receptors. The expression “selective affinity for the D4 receptor” means that the receptor has a higher affinity for the dopamine D4 receptor than for other dopamine receptors. The term “other dopamine receptors” relates to, for instance, D1, D2 and D3 dopamine receptors. pKi values of test compounds for dopamine receptors as well as 5-HT2A receptors can be measured using commonly known assays.

[1] = target: T2, adrenergic receptor Alpha 1A (Homo sapiens, UniProt P35348); test: pKi for adrenergic receptor Alpha1A (Table 1); format: binding
T2 sequence (P35348 1-466): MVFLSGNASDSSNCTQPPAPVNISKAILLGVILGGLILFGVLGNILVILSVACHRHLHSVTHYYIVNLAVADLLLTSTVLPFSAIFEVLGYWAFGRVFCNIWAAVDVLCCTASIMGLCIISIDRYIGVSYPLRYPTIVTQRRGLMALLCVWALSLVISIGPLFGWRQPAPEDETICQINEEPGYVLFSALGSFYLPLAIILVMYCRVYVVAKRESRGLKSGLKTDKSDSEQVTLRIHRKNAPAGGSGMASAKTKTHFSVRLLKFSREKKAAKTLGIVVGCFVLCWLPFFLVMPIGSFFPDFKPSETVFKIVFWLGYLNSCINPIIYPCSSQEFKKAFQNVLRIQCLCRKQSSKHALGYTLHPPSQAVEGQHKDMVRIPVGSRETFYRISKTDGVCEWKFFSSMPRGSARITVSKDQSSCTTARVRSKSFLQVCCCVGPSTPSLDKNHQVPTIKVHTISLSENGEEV
Description: (§2) The term “other dopamine receptors” relates to, for instance, D1, D2 and D3 dopamine receptors. pKi values of test compounds for dopamine receptors as well as 5-HT2A receptors can be measured using commonly known assays.

5-HT2A receptor = 5-HT2A receptor (Homo sapiens, UniProt P28223); test: pKi for 5HT2A receptor (Table 1); format: binding
Description: as §1

D1 dopamine receptor = D1 dopamine receptor (Homo sapiens, UniProt P21728); test: pKi for dopamine receptor D1 (Table 1); format: binding
Description: as §2

D4 receptor = target: T3, D4 receptor (Homo sapiens, UniProt P21917); test: pKi for dopamine receptor D4 (Table 1); format: binding
T3 sequence (P21917 1-419): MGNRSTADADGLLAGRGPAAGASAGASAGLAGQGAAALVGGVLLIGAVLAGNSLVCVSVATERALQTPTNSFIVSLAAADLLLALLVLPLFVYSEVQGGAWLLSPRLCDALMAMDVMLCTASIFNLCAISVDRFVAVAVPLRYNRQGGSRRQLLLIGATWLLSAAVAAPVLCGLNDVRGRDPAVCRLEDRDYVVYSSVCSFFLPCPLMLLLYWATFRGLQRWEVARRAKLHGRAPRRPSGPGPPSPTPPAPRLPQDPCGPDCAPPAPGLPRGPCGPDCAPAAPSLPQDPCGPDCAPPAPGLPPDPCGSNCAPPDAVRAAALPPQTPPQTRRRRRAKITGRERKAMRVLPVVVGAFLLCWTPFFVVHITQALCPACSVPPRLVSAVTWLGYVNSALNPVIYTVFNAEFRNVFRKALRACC
Description: as §1

D3 dopamine receptor = D3 dopamine receptor (Homo sapiens, UniProt P35462); test: pKi for dopamine receptor D3 (Table 1); format: binding
Description: as §1

5-HT1A receptor = target: T4, 5-HT1A receptor (Homo sapiens, UniProt P08908); test: pKi for 5HT1A receptor (Table 1); format: binding
T4 sequence (P08908 1-422): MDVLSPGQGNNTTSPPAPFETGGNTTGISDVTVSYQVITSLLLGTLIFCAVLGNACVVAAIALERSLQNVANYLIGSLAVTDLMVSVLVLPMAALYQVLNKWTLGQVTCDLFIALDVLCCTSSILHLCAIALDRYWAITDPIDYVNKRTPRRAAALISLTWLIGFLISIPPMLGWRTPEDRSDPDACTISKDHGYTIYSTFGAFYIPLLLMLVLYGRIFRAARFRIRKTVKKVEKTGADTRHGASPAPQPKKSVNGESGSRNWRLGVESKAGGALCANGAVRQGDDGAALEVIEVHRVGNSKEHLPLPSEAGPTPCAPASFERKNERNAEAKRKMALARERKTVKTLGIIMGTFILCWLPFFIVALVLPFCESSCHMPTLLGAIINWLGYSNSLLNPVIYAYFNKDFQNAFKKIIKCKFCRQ
Description: as §2

[2] = target: T5, adrenergic receptor Alpha 2A (Homo sapiens, UniProt P08913); test: pKi for adrenergic receptor Alpha2A (Table 1); format: binding
T5 sequence (P08913 1-465): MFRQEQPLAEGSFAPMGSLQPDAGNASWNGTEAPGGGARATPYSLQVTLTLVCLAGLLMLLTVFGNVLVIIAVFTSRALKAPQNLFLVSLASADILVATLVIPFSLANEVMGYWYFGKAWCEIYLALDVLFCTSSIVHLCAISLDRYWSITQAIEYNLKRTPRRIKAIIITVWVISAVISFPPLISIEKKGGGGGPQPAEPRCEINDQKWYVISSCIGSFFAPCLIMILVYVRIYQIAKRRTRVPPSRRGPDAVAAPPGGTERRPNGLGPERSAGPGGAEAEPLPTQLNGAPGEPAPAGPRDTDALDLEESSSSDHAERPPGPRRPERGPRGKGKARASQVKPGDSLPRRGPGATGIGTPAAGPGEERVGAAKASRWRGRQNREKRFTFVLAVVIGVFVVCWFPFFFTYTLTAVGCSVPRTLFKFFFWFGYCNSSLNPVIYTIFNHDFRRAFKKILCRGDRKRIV
Description: as §1

5-HT1B receptor = 5-HT1B receptor (Homo sapiens, UniProt P28222); test: pKi for 5HT1B receptor (Table 1); format: binding
5-HT2B receptor = 5-HT2B receptor (Homo sapiens, UniProt P41595); test: pKi for 5HT2B receptor (Table 1); format: binding
Description: as §2

5-HT1D receptor = 5-HT1D receptor (Homo sapiens, UniProt P28221); test: pKi for 5HT1D receptor (Table 1); format: binding
[3] = system: patients with treatment refractory major depression; test: Semi-naturalistic open label study of low dose pipamperone in treatment refractory major depression; format: in vivo, human
Protocol: Design: Semi-naturalistic i.e. inclusion of every 'natural' patient in an outpatient practice but without concomitant use of mood enhancing drugs, open label Control: No Phase: Phase Ila-preliminary Proof of Concept Location: Belgium -Research Centre […] Adverse events are assessed on: body as a whole, central and peripheral nervous system, gastrointestinal, musculoskeletal, psychiatric, respiratory, skin and appendages, vascular and urinary, taking into account discontinued treatment due to adverse events. Laboratory parameters, ECG, bodyweight and vital signs are not measured since this is a naturalistic study.

other 5HT receptors = test: pKi towards other 5HT receptors; format: binding; conditions: 5HT receptors other than 5-HT2A
Description: (§3) The term “other 5HT receptors” as used herein relate to, for instance, 5-HT1 receptors (e.g. 5-HT1A, 5-HT1 B, 5-HT1D, 5-HT1 E, 5-HT1F), 5-HT2B, 5-HT2C, 5-HT6 (rat) and 5-HT7 (rat). […] The term “other dopamine receptors” relates to, for instance, D1, D2 and D3 dopamine receptors. pKi values of test compounds for dopamine receptors as well as 5-HT2A receptors can be measured using commonly known assays.

other dopamine receptors = test: pKi towards other dopamine receptors; format: binding; conditions: dopamine receptors other than D4
Description: as §3

[4] = target: adrenergic receptor Alpha 2C (Homo sapiens, UniProt P18825); test: pKi for adrenergic receptor Alpha2C (Table 1); format: binding
5-HT6 (rat) receptor = 5-HT6 (rat) receptor (Rattus norvegicus, UniProt P31388); test: pKi for 5HT6 rat receptor (Table 1); format: binding
5-HT7 (rat) receptor = 5-HT7 (rat) receptor (Rattus norvegicus, UniProt P32305); test: pKi for 5HT7 rat receptor (Table 1); format: binding
[5] = target: adrenergic receptor Beta 1 (Homo sapiens, UniProt P08588); test: pKi for adrenergic receptor Beta1 (Table 1); format: binding
[6] = target: adrenergic receptor Alpha 2B (Homo sapiens, UniProt P18089); test: pKi for adrenergic receptor Alpha2B (Table 1); format: binding
D2 dopamine receptor = D2 dopamine receptor (Homo sapiens, UniProt P14416); test: pKi for dopamine receptor D2 (Table 1); format: binding
Description: as §2

[7] = target: adrenergic receptor Beta 2 (Homo sapiens, UniProt P07550); test: pKi for adrenergic receptor Beta2 (Table 1); format: binding
5-HT1E receptor = 5-HT1E receptor (Homo sapiens, UniProt P28566); test: pKi for 5HT1E receptor (Table 1); format: binding
patients = conditions: clinical trials; cited from earlier work

Chain of D3 dopamine receptor (P35462 whole entry): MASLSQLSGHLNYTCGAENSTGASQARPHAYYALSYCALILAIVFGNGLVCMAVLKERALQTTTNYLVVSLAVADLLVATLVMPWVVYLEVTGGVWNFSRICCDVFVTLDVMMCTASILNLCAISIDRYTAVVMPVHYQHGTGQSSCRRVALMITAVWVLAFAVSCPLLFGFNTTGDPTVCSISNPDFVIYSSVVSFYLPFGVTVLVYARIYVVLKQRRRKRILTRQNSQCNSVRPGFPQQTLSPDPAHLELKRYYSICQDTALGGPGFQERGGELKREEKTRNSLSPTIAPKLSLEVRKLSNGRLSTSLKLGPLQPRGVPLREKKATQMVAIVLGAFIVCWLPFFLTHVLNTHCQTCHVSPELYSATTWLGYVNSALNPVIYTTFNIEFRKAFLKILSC
Chain of D2 dopamine receptor (P14416 whole entry): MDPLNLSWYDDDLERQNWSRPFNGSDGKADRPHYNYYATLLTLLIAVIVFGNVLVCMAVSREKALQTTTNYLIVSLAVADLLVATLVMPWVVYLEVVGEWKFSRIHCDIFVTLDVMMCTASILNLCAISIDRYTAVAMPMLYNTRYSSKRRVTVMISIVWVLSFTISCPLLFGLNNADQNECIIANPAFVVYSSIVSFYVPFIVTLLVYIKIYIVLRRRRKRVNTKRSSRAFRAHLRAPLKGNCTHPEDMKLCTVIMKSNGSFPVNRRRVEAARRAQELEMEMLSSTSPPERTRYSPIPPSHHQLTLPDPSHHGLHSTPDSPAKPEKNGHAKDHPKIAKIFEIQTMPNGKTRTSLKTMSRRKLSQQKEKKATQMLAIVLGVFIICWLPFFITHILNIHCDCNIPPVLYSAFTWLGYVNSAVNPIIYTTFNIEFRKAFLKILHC
Chain of 5-HT2A receptor (P28223 whole entry): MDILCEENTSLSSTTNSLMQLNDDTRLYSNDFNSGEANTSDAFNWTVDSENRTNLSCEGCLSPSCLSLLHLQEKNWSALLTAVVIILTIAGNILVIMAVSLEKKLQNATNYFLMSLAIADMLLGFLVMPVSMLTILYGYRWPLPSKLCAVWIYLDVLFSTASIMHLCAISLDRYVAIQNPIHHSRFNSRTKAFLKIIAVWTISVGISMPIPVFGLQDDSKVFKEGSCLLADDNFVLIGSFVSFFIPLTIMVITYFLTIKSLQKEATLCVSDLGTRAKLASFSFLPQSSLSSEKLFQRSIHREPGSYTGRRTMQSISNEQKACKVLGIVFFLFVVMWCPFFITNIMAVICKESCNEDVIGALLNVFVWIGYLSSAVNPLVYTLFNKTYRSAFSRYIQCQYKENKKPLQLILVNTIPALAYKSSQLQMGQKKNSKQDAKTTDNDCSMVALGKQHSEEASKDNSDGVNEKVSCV
Chain of 5-HT2B receptor (P41595 whole entry): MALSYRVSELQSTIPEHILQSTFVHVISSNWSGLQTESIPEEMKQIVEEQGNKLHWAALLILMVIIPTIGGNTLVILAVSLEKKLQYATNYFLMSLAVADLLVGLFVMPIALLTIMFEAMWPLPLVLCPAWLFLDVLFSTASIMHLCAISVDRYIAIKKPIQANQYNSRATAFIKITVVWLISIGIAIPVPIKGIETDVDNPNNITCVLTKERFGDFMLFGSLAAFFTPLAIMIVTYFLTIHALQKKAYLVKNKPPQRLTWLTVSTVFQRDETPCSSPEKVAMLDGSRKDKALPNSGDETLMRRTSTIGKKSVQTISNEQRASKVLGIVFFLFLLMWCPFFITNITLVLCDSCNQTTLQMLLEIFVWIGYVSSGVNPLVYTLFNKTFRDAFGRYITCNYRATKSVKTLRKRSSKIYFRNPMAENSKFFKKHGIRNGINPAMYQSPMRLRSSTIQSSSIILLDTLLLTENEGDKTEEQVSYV
Chain of D1 dopamine receptor (P21728 whole entry): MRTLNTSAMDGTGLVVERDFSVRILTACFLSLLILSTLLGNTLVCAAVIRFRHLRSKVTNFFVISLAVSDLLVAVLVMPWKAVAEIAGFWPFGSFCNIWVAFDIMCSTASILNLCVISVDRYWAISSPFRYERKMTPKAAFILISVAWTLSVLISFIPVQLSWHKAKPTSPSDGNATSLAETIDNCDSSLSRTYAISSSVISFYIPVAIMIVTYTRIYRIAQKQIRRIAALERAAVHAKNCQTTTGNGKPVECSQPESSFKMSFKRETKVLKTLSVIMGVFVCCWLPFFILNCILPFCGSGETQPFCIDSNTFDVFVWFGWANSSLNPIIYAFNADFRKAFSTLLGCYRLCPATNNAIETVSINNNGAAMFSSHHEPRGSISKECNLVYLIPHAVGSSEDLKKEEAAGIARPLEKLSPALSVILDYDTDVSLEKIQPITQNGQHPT
Chain of 5-HT1D receptor (P28221 whole entry): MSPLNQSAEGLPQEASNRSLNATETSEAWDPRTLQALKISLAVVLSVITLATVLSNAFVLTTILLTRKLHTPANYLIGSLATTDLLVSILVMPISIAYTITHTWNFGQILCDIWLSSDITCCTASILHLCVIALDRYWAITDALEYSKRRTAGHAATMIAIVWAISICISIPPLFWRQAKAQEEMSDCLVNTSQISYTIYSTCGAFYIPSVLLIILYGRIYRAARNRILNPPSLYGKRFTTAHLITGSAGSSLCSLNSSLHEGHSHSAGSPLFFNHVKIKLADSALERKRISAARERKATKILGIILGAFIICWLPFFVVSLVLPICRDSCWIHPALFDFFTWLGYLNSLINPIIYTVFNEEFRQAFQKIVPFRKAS
Chain of 5-HT1B receptor (P28222 whole entry): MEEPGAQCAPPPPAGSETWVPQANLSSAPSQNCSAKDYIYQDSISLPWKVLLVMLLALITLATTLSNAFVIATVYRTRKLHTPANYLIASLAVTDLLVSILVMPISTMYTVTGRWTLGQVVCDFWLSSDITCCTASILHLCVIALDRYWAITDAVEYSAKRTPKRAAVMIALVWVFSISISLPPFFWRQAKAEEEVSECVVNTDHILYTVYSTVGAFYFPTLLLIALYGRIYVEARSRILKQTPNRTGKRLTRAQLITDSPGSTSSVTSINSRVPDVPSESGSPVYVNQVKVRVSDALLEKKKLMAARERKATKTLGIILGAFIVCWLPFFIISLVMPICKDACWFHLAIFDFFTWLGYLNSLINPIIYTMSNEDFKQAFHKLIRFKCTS
Chain of adrenergic receptor Beta 1 (P08588 whole entry): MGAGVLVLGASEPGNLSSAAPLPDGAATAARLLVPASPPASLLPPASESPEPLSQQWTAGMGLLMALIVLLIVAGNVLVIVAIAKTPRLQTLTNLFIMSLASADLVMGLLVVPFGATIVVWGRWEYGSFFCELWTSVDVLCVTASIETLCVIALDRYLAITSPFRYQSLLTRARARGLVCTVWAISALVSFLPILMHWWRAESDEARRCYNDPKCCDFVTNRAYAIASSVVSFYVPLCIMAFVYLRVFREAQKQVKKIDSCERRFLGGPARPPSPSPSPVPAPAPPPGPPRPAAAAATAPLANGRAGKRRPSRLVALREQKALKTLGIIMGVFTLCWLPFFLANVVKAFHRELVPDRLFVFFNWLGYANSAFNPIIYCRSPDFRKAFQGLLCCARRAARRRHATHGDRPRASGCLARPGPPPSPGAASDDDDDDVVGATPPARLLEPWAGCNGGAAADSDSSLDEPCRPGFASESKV
Chain of 5-HT7 (rat) receptor (P32305 whole entry): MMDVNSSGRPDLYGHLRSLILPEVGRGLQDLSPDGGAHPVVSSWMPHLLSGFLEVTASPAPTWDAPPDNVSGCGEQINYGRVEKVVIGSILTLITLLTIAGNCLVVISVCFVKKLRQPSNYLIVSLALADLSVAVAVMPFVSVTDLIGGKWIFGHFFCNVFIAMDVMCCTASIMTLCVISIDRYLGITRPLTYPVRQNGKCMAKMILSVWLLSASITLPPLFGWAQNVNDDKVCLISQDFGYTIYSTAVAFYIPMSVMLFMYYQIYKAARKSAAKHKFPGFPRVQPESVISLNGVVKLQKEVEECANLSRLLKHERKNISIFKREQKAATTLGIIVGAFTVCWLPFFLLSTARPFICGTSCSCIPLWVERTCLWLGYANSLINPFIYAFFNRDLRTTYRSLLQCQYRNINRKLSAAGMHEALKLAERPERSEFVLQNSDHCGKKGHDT
Chain of adrenergic receptor Beta 2 (P07550 whole entry): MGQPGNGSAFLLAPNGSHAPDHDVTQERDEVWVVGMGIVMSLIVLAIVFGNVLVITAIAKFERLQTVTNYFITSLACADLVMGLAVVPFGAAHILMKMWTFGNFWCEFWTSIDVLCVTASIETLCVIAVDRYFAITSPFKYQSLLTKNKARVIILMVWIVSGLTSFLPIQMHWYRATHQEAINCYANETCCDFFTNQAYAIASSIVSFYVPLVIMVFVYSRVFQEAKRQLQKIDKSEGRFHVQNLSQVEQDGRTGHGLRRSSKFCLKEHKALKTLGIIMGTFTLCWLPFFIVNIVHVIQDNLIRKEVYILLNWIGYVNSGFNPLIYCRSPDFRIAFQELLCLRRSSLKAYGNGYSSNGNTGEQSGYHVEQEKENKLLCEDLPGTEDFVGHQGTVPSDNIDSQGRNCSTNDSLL
Chain of 5-HT1E receptor (P28566 whole entry): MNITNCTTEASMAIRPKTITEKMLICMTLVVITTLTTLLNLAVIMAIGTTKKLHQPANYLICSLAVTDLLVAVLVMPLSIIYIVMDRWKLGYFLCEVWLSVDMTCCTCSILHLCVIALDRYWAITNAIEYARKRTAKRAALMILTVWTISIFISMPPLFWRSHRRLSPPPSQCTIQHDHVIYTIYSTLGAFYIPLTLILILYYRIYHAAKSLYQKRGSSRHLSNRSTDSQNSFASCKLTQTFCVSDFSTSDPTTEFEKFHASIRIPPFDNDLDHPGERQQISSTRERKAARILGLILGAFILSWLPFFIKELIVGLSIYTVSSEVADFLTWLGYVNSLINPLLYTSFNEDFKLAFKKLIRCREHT

Row | SMILES | pKi 5HT2C (5-HT2C receptor) | pKi Alpha1A [1] | pKi 5HT2A (5-HT2A receptor) | pKi D4 (D4 receptor) | pKi D3 (D3 dopamine receptor) | pKi 5HT1A (5-HT1A receptor) | pKi Alpha2A [2] | also measured
1 | CCN1CCC[C@H]1CNC(=O)c1c(O)c(Cl)cc(Cl)c1OC (racemic) [Raciopride] | <6 | <6 | 6-7 | <6 | 8-9 | <6 | <6 | pKi D1 (D1 dopamine receptor): <6
2 | CCNC(=O)N1CCN(CCCC(c2ccc(F)cc2)c2ccc(F)cc2)CC1 [Amperozide] | – | – | – | – | – | – | – | Ki (D4 receptor): > 1 µM
3 | Fc1cccc2c1O[C@H]1CNC[C@@H]1O2 [Fluparoxan] | – | – | – | – | – | – | – | Ki (5-HT2A receptor): > 1 µM
4 | OC1(c2ccc(Cl)cc2)CCN(Cc2c[nH]c3ccccc23)CC1 [L741626] | – | – | – | 6-7 | 7-8 | – | <6 | pKi 5HT1B (5-HT1B receptor): <6; pKi 5HT2B (5-HT2B receptor): 6-7; pKi 5HT1D (5-HT1D receptor): <6
5 | NC(=O)C1(N2CCCCC2)CCN(CCCC(=O)c2ccc(F)cc2)CC1 [Pipamperone, 1′-[3-(p-Fluorobenzoyl)propyl]-[1,4′-bipiperidine]-4′-carboxamide] | – | – | – | – | – | – | – | tolerability in patients with depression ([3]; 1-20 mg/day PO, 8 weeks): generally well tolerated; anti-depressant effect on treatment refractory patients ([3]; 1-20 mg/day PO, 8 weeks, refractory towards SSRIs): apparent; sedative effects ([3]; doses used in the study (1-20 mg/day), observed at higher doses): lacking; anti-depressant effect ([3]; extremely unconventional low dose, 1-20 mg/day PO, 8 weeks, open label): apparent; Ki (D4 receptor): ≤ 0.01 µM; pKi towards other 5HT receptors (other 5HT receptors): less than 8; pKi towards other dopamine receptors (other dopamine receptors): less than 8
6 | O=C(CC1CCN(CCOc2cccc3c2OCCO3)C1)c1ccc(F)cc1 (centres unmarked) [S16924] | 7-8 | 8-9 | >9 | 7-8 | 7-8 | 8-9 | 6-7 | pKi 5HT2B (5-HT2B receptor): 8-9; pKi Alpha2C [4]: 6-7; pKi 5HT6rat (5-HT6 (rat) receptor): 7-8; pKi 5HT7rat (5-HT7 (rat) receptor): 7-8; pKi Beta1 [5]: <6; pKi Alpha2B [6]: 7-8; pKi D2 (D2 dopamine receptor): 7-8; pKi Beta2 [7]: <6
7 | O=C1N(CCN2CCC(c3noc4cc(F)ccc34)CC2)CCN1c1ccccc1 [S18327] | 6-7 | >9 | 8-9 | 8-9 | 6-7 | 7-8 | 6-7 | pKi D1 (D1 dopamine receptor): 7-8; pKi D2 (D2 dopamine receptor): 7-8
8 | N#Cc1ccc2c(c1)[C@H]1CN(CCCCNC(=O)c3ccc(-c4ccccc4)cc3)C[C@@H]1CO2 [S33084] | 7-8 | 6-7 | 6-7 | <6 | >9 | <6 | <6 | pKi 5HT1B (5-HT1B receptor): 6-7; pKi D1 (D1 dopamine receptor): 6-7; pKi 5HT2B (5-HT2B receptor): 6-7; pKi 5HT1D (5-HT1D receptor): 6-7; pKi D2 (D2 dopamine receptor): 7-8
9 | OCCOCCN1CCN(C2=Nc3ccccc3Sc3ccccc32)CC1 [Seroquel] | – | – | – | – | – | – | – | Ki (5-HT1E receptor): > 1 µM
10 | CN(C)CCOC1=Cc2ccccc2Sc2ccc(Cl)cc21 [Zotepine] | – | – | – | – | – | – | – | Ki (D4 receptor): 0.01 to 0.1 µM
11 | CN(C)CCCC1(c2ccc(F)cc2)OCc2cc(C#N)ccc21 (centres unmarked) [citalopram] | – | – | – | – | – | – | – | patients reporting one or more of the listed side effects (patients): over 10%
